Measured values published in PMC11618052, “Design, synthesis, and antiproliferative activity of new 1,2,3-triazole/quinazoline-4-one hybrids as dual EGFR/BRAF^V600E inhibitors” (RSC Advances, 2024).
Several values for one entry are separate records, joined by “and”; a condition that tells them apart may be missing. Equal values may be shown once.

Columns and labels:
Bax = Bax level assay in MCF-7; assay type: cell-based, human; conditions: for Bax Fold change: MCF-7, versus untreated control; for Bax Conc.: MCF-7 cancer cell line
Procedure: (§1) Compounds 8g and 8h were evaluated as caspase-3, 8 and Bax activators and as down-regulator of the anti-apoptotic protein Bcl2 against the MCF-7 breast cancer cell line.[40] Appendix A ^† contains more details. […]
Bring all reagents, except the human Bax-α Standard, to room temperature for at least 30 minutes prior to opening. The human Bax-α Standard solution should not be left at room temperature for more than 10 minutes. All standards, controls and samples should be run in duplicate. Refer to the Assay Layout Sheet to determine the number of wells to be used and put any remaining wells with the desiccant back into the pouch and seal the ziploc. Store unused wells at 4 °C. Pipet 100 μL of Assay Buffer into the S0 (0 pg/mL standard) wells. Pipet 100 μL of Standards #1 through #6 into the appropriate wells. Pipet 100 μL of the Samples into the appropriate wells. Tap the plate gently to mix the contents. Seal the plate and incubate at room temperature on a plate shaker for 1 hour at ~500 rpm. Empty the contents of the wells and wash by adding 400 μL of wash solution to every well. Repeat the wash 4 more times for a total of 5 washes. After the final wash, empty or aspirate the wells and firmly tap the plate on a lint free paper towel to remove any remaining wash buffer.
Pipet 100 μL of yellow Antibody into each well, except the Blank. Seal the plate and incubate at room temperature on a plate shaker for 1 hour at ~500 rpm. Empty the contents of the wells and wash by adding 400 μL of wash solution to every well. Repeat the wash 4 more times for a total of 5 washes. After the final wash, empty or aspirate the wells and firmly tap the plate on a lint free paper towel to remove any remaining wash buffer. Add 100 μL of blue Conjugate to each well, except the Blank. Seal the plate and incubate at room temperature on a plate shaker for 30 minutes […]
Pipet 100 μL of Substrate Solution into each well. Incubate for 30 minutes at room temperature on a plate shaker at ~500 rpm. Pipet 100 μL Stop Solution to each well. Blank the plate reader against the Blank wells, read the optical density at 450 nm. Calculate the average net Optical Density (OD) bound for each standard and sample by subtracting the average Blank OD from the average OD for each standard and sample. Using linear graph paper, plot the Average Net OD for each standard versus Bax concentration in each standard. Approximate a straight line through the points.
The concentration of Bax in the unknowns can be determined by interpolation. […]
Remove plate cover and empty the wells. […]
Incubate the microwell strips at room temperature (18° to 25°C) for about 15 minutes, if available on a rotator set at 100 rpm.

Bcl-2 = Bcl-2 level assay in MCF-7; assay type: cell-based, human; conditions: for Bcl-2 Fold reduction: MCF-7, versus untreated control; for Bcl-2 Conc.: MCF-7 cancer cell line
Procedure: as §1
4.2.1.8. Bcl-2inhibition assay
Mix all reagents thoroughly without foaming before use. Wash the microwells twice with approximately 300 μL Wash Buffer per well with thorough aspiration of microwell contents between washes. Take caution not to scratch the surface of the microwells. After the last wash, empty the wells and tap microwell strips on absorbent pad or paper towel to remove excess Wash Buffer. Use the microwell strips immediately after washing or place upside down on a wet absorbent paper for not longer than 15 minutes. […] Add 100 μL of Sample […]
Diluent in duplicate to all standard wells and to the blank wells. Prepare standard (1:2 dilution) in duplicate ranging from 32 ng/mL to 0.5 ng/mL. Add 100 μL of Sample Diluent, in duplicate, to the blank wells. Add 80 μL of Sample Diluent, in duplicate, to the sample wells. Add 20 μL of each Sample, in duplicate, to the designated wells. Add 50 μL of diluted biotin-conjugate to all wells, including the blank wells. Cover with a plate cover and incubate at room temperature, on a microplate shaker at 100 rpm if available, for 2 hours. Remove plate cover and empty the wells.
Wash microwell strips 3 times as described in step 2. Add 100 μL of diluted Streptavidin-HRP to all wells, including the blank wells. Cover with a plate cover and incubate at room temperature, on a microplate shaker at 100 rpm if available, for 1 hour. Remove plate cover and empty the wells.
Wash microwell strips 3 times as described in step 2. Proceed to the next step. Pipette 100 μl of mixed TMB Substrate Solution to all wells, including the blanks. Incubate the microwell strips at room temperature (18° to 25°C) for about 15 minutes, if available on a rotator set at 100 rpm.
Avoid direct exposure to intense light. The point, at which the substrate reaction is stopped, is often determined by the ELISA reader. Many ELISA readers record absorbance only up to 2.0
O.D. Therefore, the color development within individual microwells must be watched by the person running the assay and the substrate reaction stopped before positive wells are no longer properly detectable. Stop the enzyme reaction by quickly pipetting 100 μL of Stop Solution into each well, including the blank wells. It is important that the Stop Solution is spread quickly and uniformly throughout the microwells to completely inactivate the enzyme. Results must be read immediately after the Stop Solution is added or within one hour if the microwell strips are stored at 2 - 8°C in the dark. Read absorbance of each microwell on a spectrophotometer using 450 nm as the primary wavelength. […]
(FITC) and propidium iodide (PI) staining kit (BD Pharmingen, San Diego, USA). […]
μL of FITC and PI were added to Eppendorf tube, cells were vortexed, incubated for 15 min at room temperature in dark. Subsequently, cells were analyzed by flow cytometry (Becton Dickinson, Franklin Lakes, and USA).

lung cancer (A-549) = assay: Antiproliferative MTT assay, A-549; assay type: cell-based; conditions: Homo sapiens, A549, A-549 lung cancer cells, read-out: Antiproliferative activity IC50 ± SEM, A-549
Procedure: (§2) The median inhibitory concentration (IC50) and GI50 (mean IC50) for the four cancer cell lines were calculated. Appendix A ^† contains more details. […]

BRAF^V600E = BRAF^V600E kinase inhibitory assay
BRAF^V600E, sequence (P28028 whole entry V585E): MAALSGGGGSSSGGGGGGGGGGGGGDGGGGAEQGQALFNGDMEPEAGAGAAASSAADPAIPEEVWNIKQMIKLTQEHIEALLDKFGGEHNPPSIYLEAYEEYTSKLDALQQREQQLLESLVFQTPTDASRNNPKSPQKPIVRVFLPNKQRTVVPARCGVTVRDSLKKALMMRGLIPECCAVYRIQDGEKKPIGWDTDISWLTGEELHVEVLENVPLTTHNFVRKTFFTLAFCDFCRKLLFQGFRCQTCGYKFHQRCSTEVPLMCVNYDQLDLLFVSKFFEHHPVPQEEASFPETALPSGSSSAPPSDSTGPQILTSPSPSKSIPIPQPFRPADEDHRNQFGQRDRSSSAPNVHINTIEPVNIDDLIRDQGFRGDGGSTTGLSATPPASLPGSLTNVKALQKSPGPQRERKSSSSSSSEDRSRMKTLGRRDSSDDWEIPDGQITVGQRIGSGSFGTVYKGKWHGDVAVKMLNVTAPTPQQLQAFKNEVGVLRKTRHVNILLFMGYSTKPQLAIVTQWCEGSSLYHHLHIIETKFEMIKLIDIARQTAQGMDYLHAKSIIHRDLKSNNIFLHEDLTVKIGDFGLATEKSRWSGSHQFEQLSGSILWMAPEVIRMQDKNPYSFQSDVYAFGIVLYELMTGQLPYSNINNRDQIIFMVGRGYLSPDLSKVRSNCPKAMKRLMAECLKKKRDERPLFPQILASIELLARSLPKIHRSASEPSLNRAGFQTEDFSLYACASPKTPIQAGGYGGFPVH
Procedure: V600E mutant BRAF kinase assay was performed to investigate the activity of tested compounds against BRAF. Mouse full-length GST-tagged BRAFV600E (7.5 ng, Invitrogen, PV3849) was pre-incubated with drug (1 µL) and assay dilution buffer (4 µL) for 60 min at 25 °C. In assay dilution buffer, a solution (5 µL) containing MgCl2 (30 mM), ATP (200 µM), recombinant human full length (200 ng) and N-terminal His-tagged MEK1 (Invitrogen) was added to start the assay, subsequent to incubation for 25 min at 25 °C. The assay was stopped using 5X protein denaturing buffer (LDS) solution (5 µL). To further denature the protein, heat (70° C) was applied for 5 min.
10 µL of each reaction was loaded into the precast plates and electrophoresis was allowed to proceed. After completion of electrophoresis, the front part of the precast gel plate (holding hot ATP) was cut and afterwards cast-off. The dried gel was developed using a phosphor screen. A

[1] = system: pancreatic cancer (Panc-1); assay: Antiproliferative MTT assay, Panc-1; assay type: cell-based; conditions: Homo sapiens, Panc-1 pancreatic cancer cells, read-out: Antiproliferative activity IC50 ± SEM, Panc-1
Procedure: as §2

[2] = system: four human cancer cell lines (A-549, MCF-7, Panc-1, HT-29); assay: Antiproliferative MTT assay, mean over the four cancer cell lines; assay type: cell-based; conditions: Homo sapiens, mean IC50 over A-549, MCF-7, Panc-1, HT-29
Procedure: as §2

Structure (SMILES)	Bax Fold change (Bax)	Bax Conc. (Bax)	Bcl-2 Fold reduction (Bcl-2)	Bcl-2 Conc. (Bcl-2) [ng/mL]	IC50 (lung cancer (A-549)) [µM]	IC50 (BRAF^V600E) [µM]	IC50 [1] [µM]	GI50 [2] [µM]	Bax Conc. (Bax; listed as staurosporine) [pg/mL]
Cc1ccc(-n2cc(CSc3nc4ccccc4c(=O)n3-c3ccc(C)cc3)nn2)cc1 [Compound 8h, 2-(((1-(p-Tolyl)-1H-1,2,3-triazol-4-yl)methyl)thio)-3-(p-tolyl)quinazolin-4(3H)-one]	37	295 pg/mL and 295 ± 9 pg/mL	6	0.90	0.025 ± 0.001	0.055 ± 0.005	0.026 ± 0.001	0.025	–
CN[C@@H]1C[C@H]2O[C@@](C)([C@@H]1OC)n1c3ccccc3c3c4c(c5c6ccccc6n2c5c31)C(=O)NC4 [Staurosporine, reference compound]	35	280 ± 7 pg/mL	5	1.10	–	–	–	–	280
COc1ccc(-n2cc(CSc3nc4ccccc4c(=O)n3-c3ccc(C)cc3)nn2)cc1 [Compound 8g, 2-(((1-(4-Methoxyphenyl)-1H-1,2,3-triazol-4-yl)methyl)thio)-3-(p-tolyl)quinazolin-4(3H)-one]	39	315 pg/mL and 315 ± 9 pg/mL	7	0.70	0.022 ± 0.001	0.047 ± 0.003	0.024 ± 0.001	0.022	–
